Source: article PMC11674187, “Inhibitory Effects of Cenobamate on Multiple Human Cardiac Ion Channels and Possible Arrhythmogenic Consequences” (Biomolecules, 2024)
Where “and” joins values, the source holds several entries; their conditions need not be identical. Equal entries are not always repeated. Where two headings read alike, the source gives them in different places.

Tests used:
hKv7.1 + minK = target: T1, hKv7.1 + minK (Homo sapiens, UniProt P51787); experiment: Whole-cell patch-clamp on HEK293T cells, IKs; format: cell-based; details: for inhibition at 200 µM: HEK-293T
T1 construct: host or cells: HEK293T
Experimental: (§1) Experiments were performed on HEK293T cell lines with persistent/inducible expression of different human cardiac ion channel isoforms: hNav1.5 and hKv7.1 + minK (Anaxon AG, Bern, Switzerland), hCav1.2 (α1c + β2 + α2δ1) (B’SYS GmbH, Witterswil, Switzerland), and hKv11.1 (hERG) (Cytocentrics Bioscience GmbH, Rostock, Germany). The cell lines were grown in standard conditions (37 °C, 5% CO2, 90% humidity) in DMEM:F12 medium (D8900, Sigma-Aldrich, Burlington, MA, USA) buffered with 15 mM HEPES, containing 3.15 g/L D-glucose and 0.055 g/L sodium pyruvate, supplemented with 1.2 g/L sodium bicarbonate, 10% fetal bovine serum (F2442, Sigma-Aldrich, Burlington, MA, USA), 2 mM L-glutamine (G7513, Sigma-Aldrich, Burlington, MA, USA), 1% penicillin–streptomycin (P4333, Sigma-Aldrich, Burlington, MA, USA), and with specific antibiotics for selection of transfected cells or induction of gene expression according to manufacturers’ instructions. The medium was changed every 2–3 days and the cells were passed weekly upon detachment with trypsin–EDTA solution. All cell culture media and solutions were sterile filtered with 0.22 μm polyvinylidene fluoride filters. Ncyte® vCardiomyocytes (Ncardia, Leiden, The Netherlands) were cultured in 24-well plates precoated with bovine fibronectin, following manufacturer’s instructions. For the experiments, cardiomyocytes were detached as described previously and plated on ϕ 10 mm glass coverslips, like the other cell lines.
Manual whole-cell patch-clamp experiments were performed at room temperature, with equipment as described in previous studies. Pipettes were pulled from Clark borosilicate glass capillaries with inner filament (GC150F-10, Harvard Apparatus, Holliston, MA, USA) and had typical resistances of 2–3 MΩ. Recordings were performed with a WPC-100 resistive feedback amplifier (ESF electronic, Göttingen, Germany) or an Axopatch 200B amplifier (Axon Instruments—Molecular Devices, San Jose, CA, USA) connected to a Digidata 1322A interface driven by the pClamp 8.2 Clampex module (Axon Instruments, part of Molecular Devices, San Jose, CA, USA). […]

IKr (hERG) = details: read-out: apparent IC50 for IKr (hERG); used for further computations; ref [5] p. 10; cited from earlier work
neuronal Na+ channels = test system: neuronal Na+ channels; set-up: method as in PMID 33993416; details: ref [6]; read-out: IC50 on late (persistent) neuronal Na+ current; cited from earlier work
[1] = cited from earlier work
[2] = ref https://go.drugbank.com/drugs/DB06119; cited from earlier work
[3] = target: T2, hCav1.2 (α1c + β2 + α2δ1) (Homo sapiens, UniProt Q13936); experiment: Whole-cell patch-clamp on HEK293T cells, ICaL; format: cell-based
T2 construct: host or cells: HEK293T
Experimental: as §1
Manual whole-cell patch-clamp experiments were performed at room temperature, with equipment as described in previous studies. Pipettes were pulled from Clark borosilicate glass capillaries with inner filament (GC150F-10, Harvard Apparatus, Holliston, MA, USA) and had typical resistances of 2–3 MΩ. Recordings were performed with a WPC-100 resistive feedback amplifier (ESF electronic, Göttingen, Germany) or an Axopatch 200B amplifier (Axon Instruments—Molecular Devices, San Jose, CA, USA) connected to a Digidata 1322A interface driven by the pClamp 8.2 Clampex module (Axon Instruments, part of Molecular Devices, San Jose, CA, USA). For different types of ion channel, we applied specific voltage-clamp protocols as follows: • - For hERG, a standard two-step activation protocol was used: holding at −70 mV, a 100 ms step at −50 mV used as current reference for measurements, a 2 s depolarizing step at +40 mV, followed by a 2 s step at −50 mV to elicit the peak hERG current by rapid recovery from inactivation, repeated sweeps at 10 s intervals, plus specific protocols to assess the voltage dependence of activation and inactivation, as described in Thomet et al., 2021 [11]. • - For hKv7.1 + minK, a general two-step activation protocol was used: holding at −110 mV, a 250 ms step at −80 mV with a brief (50 ms) step at −90 mV at the middle to monitor seal quality, a 3000 ms depolarizing step at +60 mV, followed by a 1000 ms step at −50 mV; repeated sweeps at 20 s intervals. • - For hCav1.2, a pharmacology protocol with holding at −80 mV, a first 100 ms step at −50 mV and a second 200 ms step at 0 mV, repeated sweeps at 20 s intervals with drug application after 5 sweeps if current levels were steady, plus an activation–inactivation protocol with holding at −80 mV, 1000 ms depolarizing steps from −80 to +50 mV in 10 mV increments, followed by 250 ms steps at +10 mV and a return to −80 mV; 14 sweeps at 20 s intervals. • - For hNav1.5, multiple voltage protocols were used, including the following: • - A standard pharmacology protocol with holding at −90 mV, a 20 ms step at −110 mV for seal monitoring, a 40 ms activation step at −10 mV, and repeated sweeps at 1 s intervals. […]

T2 sequence (Q13936 whole entry): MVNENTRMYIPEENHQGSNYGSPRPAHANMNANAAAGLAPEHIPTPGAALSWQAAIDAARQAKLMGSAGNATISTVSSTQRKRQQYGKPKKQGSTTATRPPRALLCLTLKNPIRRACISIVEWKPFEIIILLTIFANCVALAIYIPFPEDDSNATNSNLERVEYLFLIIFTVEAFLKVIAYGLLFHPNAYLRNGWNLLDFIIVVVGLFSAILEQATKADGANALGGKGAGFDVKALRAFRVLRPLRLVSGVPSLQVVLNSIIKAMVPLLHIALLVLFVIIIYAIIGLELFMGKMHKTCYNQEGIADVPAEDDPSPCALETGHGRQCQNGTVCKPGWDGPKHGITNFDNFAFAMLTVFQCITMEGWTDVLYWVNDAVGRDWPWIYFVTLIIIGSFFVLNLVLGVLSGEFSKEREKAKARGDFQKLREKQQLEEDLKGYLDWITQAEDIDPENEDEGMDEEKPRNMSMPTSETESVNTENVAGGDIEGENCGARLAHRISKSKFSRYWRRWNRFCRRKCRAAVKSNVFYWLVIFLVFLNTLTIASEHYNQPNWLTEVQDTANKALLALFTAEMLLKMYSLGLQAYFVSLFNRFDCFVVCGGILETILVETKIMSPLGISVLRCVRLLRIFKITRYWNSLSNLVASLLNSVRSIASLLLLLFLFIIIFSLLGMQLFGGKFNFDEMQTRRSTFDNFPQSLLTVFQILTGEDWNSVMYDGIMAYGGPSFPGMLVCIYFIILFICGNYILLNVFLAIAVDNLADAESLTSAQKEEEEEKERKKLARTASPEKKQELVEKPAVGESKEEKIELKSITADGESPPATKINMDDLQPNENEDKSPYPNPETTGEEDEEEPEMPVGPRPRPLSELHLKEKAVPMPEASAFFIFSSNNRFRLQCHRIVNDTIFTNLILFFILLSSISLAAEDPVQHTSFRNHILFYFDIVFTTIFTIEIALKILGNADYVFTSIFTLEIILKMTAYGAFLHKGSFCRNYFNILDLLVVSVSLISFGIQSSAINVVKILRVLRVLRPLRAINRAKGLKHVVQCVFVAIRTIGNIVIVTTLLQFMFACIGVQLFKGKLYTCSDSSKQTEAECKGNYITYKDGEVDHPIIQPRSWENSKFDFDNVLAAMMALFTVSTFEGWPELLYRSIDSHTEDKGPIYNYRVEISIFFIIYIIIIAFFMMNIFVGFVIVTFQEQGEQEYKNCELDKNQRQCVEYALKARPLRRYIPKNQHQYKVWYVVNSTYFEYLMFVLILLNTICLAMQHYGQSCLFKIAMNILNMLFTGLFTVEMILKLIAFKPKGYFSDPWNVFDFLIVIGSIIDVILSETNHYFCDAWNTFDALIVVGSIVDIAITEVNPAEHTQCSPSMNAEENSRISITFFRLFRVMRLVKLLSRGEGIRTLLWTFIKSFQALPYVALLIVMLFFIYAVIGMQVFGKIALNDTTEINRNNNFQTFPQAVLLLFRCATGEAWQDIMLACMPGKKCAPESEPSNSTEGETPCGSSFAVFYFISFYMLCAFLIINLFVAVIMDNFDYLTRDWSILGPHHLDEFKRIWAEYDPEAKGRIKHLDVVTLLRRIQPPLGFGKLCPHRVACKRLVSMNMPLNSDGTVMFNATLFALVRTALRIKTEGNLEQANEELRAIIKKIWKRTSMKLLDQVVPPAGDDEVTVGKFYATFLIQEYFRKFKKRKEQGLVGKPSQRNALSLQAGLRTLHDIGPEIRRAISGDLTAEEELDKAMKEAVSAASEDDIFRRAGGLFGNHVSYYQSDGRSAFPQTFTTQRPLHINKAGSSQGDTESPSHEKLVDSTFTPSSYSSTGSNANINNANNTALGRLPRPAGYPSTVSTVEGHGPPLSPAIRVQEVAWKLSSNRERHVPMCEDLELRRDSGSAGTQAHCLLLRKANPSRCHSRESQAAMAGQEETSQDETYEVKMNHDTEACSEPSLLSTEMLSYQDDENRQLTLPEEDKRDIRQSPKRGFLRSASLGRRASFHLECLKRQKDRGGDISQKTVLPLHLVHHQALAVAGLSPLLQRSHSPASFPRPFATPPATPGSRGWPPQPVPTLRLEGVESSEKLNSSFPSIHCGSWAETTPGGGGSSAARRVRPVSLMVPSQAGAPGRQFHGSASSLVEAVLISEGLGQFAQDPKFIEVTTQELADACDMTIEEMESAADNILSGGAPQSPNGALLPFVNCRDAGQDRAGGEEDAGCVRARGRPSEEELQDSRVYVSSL
T2 sequence (Q08289 whole entry partner): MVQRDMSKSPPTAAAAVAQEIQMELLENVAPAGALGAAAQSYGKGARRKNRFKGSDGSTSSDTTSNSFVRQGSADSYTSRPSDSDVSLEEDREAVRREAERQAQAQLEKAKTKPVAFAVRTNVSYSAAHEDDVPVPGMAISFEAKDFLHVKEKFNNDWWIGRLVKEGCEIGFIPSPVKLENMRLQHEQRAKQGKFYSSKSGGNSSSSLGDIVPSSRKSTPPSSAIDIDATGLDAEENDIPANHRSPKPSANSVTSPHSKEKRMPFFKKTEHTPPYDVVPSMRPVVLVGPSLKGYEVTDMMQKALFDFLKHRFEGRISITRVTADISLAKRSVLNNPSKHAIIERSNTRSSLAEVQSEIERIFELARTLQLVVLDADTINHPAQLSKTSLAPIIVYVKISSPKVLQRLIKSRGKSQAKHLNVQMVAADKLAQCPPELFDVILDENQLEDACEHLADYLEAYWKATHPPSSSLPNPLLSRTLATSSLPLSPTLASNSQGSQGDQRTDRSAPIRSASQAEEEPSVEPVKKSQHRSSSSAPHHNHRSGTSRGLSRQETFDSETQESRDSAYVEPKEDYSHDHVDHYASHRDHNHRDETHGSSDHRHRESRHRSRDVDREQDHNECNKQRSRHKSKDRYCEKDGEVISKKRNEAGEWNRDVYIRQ
T2 sequence (P54289 25-946 partner limits assumed): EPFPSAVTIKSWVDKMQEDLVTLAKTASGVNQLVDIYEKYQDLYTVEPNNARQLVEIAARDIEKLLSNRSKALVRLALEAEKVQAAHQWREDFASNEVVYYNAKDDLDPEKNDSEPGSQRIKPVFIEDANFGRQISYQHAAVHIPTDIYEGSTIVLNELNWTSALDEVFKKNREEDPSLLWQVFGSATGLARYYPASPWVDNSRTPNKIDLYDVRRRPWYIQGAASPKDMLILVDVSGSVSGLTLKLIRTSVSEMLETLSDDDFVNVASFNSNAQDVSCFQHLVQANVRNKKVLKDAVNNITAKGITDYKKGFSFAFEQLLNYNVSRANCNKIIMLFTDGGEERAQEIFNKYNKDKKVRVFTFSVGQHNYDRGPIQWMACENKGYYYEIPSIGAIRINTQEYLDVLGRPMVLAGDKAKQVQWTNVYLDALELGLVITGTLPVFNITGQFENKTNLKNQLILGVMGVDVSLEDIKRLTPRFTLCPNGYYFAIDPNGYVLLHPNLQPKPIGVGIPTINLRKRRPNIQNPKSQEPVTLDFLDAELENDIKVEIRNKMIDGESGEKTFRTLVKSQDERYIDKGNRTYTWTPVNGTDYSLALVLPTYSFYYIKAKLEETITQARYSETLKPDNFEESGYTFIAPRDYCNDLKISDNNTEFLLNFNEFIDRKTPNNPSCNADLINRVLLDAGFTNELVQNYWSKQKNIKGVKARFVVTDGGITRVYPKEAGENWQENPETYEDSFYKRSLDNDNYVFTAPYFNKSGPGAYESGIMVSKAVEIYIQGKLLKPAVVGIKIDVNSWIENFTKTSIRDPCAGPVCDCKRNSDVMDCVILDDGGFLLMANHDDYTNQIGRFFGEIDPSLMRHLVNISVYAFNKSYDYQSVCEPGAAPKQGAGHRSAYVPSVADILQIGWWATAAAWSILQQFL
T2 sequence (P54289 947-1103 partner limits assumed): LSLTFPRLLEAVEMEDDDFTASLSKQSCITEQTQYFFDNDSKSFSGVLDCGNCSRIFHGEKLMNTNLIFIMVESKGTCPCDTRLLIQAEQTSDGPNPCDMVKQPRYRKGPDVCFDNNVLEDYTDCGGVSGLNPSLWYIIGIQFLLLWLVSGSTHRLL
T1 sequence (P51787 whole entry): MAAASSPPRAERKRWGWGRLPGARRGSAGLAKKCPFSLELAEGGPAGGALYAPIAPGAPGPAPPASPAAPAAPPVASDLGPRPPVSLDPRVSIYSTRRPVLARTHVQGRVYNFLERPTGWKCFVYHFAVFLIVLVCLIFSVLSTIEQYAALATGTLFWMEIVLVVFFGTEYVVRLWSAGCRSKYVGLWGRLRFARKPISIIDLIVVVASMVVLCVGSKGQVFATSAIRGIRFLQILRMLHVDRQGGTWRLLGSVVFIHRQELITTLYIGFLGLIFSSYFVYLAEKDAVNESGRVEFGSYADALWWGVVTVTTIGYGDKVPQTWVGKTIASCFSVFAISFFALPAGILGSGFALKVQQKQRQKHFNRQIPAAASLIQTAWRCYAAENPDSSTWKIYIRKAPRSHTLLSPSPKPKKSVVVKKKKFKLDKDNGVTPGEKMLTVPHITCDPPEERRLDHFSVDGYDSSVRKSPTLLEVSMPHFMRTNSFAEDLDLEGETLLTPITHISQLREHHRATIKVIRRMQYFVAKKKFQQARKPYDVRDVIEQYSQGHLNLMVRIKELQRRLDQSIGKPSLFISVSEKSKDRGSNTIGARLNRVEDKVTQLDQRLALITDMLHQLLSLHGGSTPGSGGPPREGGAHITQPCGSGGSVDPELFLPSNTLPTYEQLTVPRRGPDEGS

NC(=O)O[C@@H](Cn1ncnn1)c1ccccc1Cl [cenobamate]
IC50 (hKv7.1 + minK): > 200 µM | inhibition at 200 µM (hKv7.1 + minK; cenobamate 200 µM, mean (SD), n = 8, not corrected for control rundown 23.66%, read-out: average inhibition of IKs plateau current at +60 mV): 36.7 ± 13% | inhibition at 200 µM (hKv7.1 + minK; cenobamate 200 µM, read-out: estimated net average IKs inhibition (cenobamate 200 µM − control)): 13% | average inhibition of IKs plateau current at +60 mV (hKv7.1 + minK; cenobamate 200 µM, mean (SD), n = 8, not corrected for control rundown 23.66%): 36.68 ± 13.02% | IC50 (IKr (hERG)): 1870 µM | IC50 (neuronal Na+ channels): 59 µM | peak plasma therapeutic concentration (Cmax) ([1]; 400 mg/day, study YKP3089C018, ref [5] p. 13): 45500 ng/mL | Cmax ([1]; read-out: Cmax (maximal effective therapeutic plasma concentration), 400 mg/day, ref [5] p. 13 / p. 10): 170 µM | Cmax ([1]; read-out: Cmax (model script), value entered in C++ script, ref [5]): 170 µM | logP [2]: 1.66 | physiological charge [2]: 0 | strongest acidic pKa [2]: 14.28 | strongest basic pKa [2]: −1.7 | inhibition at 20 µM ([3]; HEK-293T, cenobamate 20 µM, read-out: % ICaL inhibition, mean (Table S5)): 6.65% | inhibition at 100 µM ([3]; HEK-293T, cenobamate 100 µM, read-out: % ICaL inhibition, mean (Table S5)): 11.3% | inhibition at 100 µM ([3]; HEK-293T, cenobamate 100 µM, read-out: % ICaL inhibition, single experiments (Table S5)): 11.2% | inhibition at 200 µM ([3]; HEK-293T, cenobamate 200 µM, read-out: % ICaL inhibition, mean (Table S5)): 34.5% | inhibition at 200 µM ([3]; HEK-293T, cenobamate 200 µM, step at 0 mV, initial set, mean (SD), n = 4, read-out: average inhibition of peak ICaL amplitude): 39.3 ± 13.8% | inhibition at 400 µM ([3]; HEK-293T, cenobamate 400 µM, read-out: % ICaL inhibition, mean (Table S5)): 42% | inhibition at 400 µM ([3]; HEK-293T, cenobamate 400 µM, read-out: % ICaL inhibition, single experiments (Table S5)): 39% | inhibition at 1000 µM ([3]; HEK-293T, cenobamate 1000 µM, read-out: % ICaL inhibition, mean (Table S5)): 65.3% | IC50 ([3]; ICaLIC50 (model script), value entered in C++ script): 510 µM | IC50 ([3]; apparent IC50 for hCav1.2 (ICaL) inhibition, unitary Hill coefficient): 510 µM | % ICaL inhibition, single experiments (Table S5) ([3]; cenobamate 100 µM): 11.40% and 10.58% and 12.03% | average inhibition of peak ICaL amplitude ([3]; cenobamate 200 µM, step at 0 mV, initial set, mean (SD), n = 4): 39.26 ± 13.78% | % ICaL inhibition, single experiments (Table S5) ([3]; cenobamate 400 µM): 41.25% and 47.37% and 40.40% | % ICaL inhibition, single experiments (Table S5) ([3]; cenobamate 1000 µM): 77.36% and 58.39% and 76.52% and 52.87% and 61.56%
